Data from patent US20100311661A1, “USE OF COMPOUNDS DERIVED FROM CYCLOHEXIMIDE FOR THE TREATMENT OR PREVENTION OF, IN PARTICULAR, ISCHAEMIAS AND CARDIOPATHIES” (Max Planck Gesellschaft Zur Forderung Der Wissenschaften …, priority 2007, published 2010).

Tests used:
retinal ganglion cells = details: in vivo; cited from earlier work
brain lesions = details: photothrombotic in vivo model in rats; cited from earlier work
liver cells of rats = details: cited from earlier work
adult cardiomyocytes = test: Adult cardiomyocytes under hypoxia and subsequent reoxygenation; apoptosis by Guava ViaCount assay; details: 18 hours hypoxia, 24 hours normoxic; DM-CHX greater than 1 μM; p<0.05
[1] = system: Hearts of 9-week-old male rats; set-up: species or system rats (Sprague-Dawley)

| Structure (SMILES) | cell death caused by axotomy (retinal ganglion cells) | brain lesions triggered by radiation (brain lesions) | protection against cell death (liver cells of rats) | influence on apoptosis (adult cardiomyocytes) | size of the infarct, qualitative (TTC colouring, visual) [1] |
| --- | --- | --- | --- | --- | --- |
| CC1CC(C)C(=O)C(C(O)CC2CC(=O)NC(=O)C2)C1 (centres unmarked) [CHX, 4-[2-(3,5-dimethyl-2-oxocyclohexyl)-2-hydroxy-ethyl]-2,6-piperidindione] | inhibits cell death caused by axotomy | reduces brain lesions | protective property of CHX against cell death has also been demonstrated |  |  |
| C[C@@H]1C[C@@H]([C@H](O)CC2CC(=O)N(CC(=O)N(C)C)C(=O)C2)C(=O)[C@@H](C)C1 [DM-CHX] |  |  |  | statistically significant influence | serious difference in colouring |
